# Source: patent US11925653B2, “Combination therapy effective against microorganisms, including drug resistant microorganisms” (Fleurir ABX LLC, priority 2021, dated 2024)
# How the values were obtained:
# [1] = representative pharmacokinetic parameters; type: in vivo; conditions: Dose: Fosfomycin 3000 mg, trimethoprim 720 mg
# Source text: The therapeutically effective amount may be modified by pharmacokinetic, and pharmacodynamic analysis as is understood in the field. In some embodiments, the novel composition may be provided prophylactically or preventatively or protectively, which may, in some instances, be at or below a therapeutically effective amount.
# E. faecalis = conditions: cited from earlier work
# H. influenzae = conditions: cited from earlier work
# bacteria = assay: spontaneous mutational frequency (SMF; resistance); type: cell-based; conditions: resistant colonies observed divided by total inoculum; plates with 4-fold MIC of the combination or 2-fold MIC of each antibiotic alone
# Protocol: MIC was further evaluated to confirm resistance, and the spontaneous mutational frequency was calculated based on the following equation: […]
# The spontaneous mutational frequency (SMF; resistance) was calculated as the number of resistant colonies observed divided by the total inoculum.
Compound,kel (elimination rate constant) [1] [h⁻¹],Tmax ([1]; sulfamethoxazole 3600 mg) [h],"MIC of co-trimoxazole, per component (E. faecalis) [µg/mL]","MIC of co-trimoxazole, per component (H. influenzae) [µg/mL]","frequency of spontaneous mutants resistant (spontaneous mutational frequency, SMF) (bacteria)"
"COc1cc(Cc2cnc(N)nc2N)cc(OC)c1OC [trimethoprim, 2,4-diamino-5-(3,4,5-trimethoxybenzyl)pyrimidine]",0.08,2,2,0.5,
O=C1CN(/N=C/c2ccc([N+](=O)[O-])o2)C(=O)N1 [nitrofurantoin],,,,,3.40×10^−8
"Cc1cc(NS(=O)(=O)c2ccc(N)cc2)no1 [sulfamethoxazole, N1-(5-methyl-3-isoxazolyl)sulfanilamide]",,,38,≤ 9.5,
